From patent publication US4389408A, “Novel ampicillin esters and production thereof” (priority 1980, dated 1983)
Counter-ions that a name gives are not always drawn. Like-named read-outs stand apart in the source and are kept apart here.

Experiments:
in vitro [1] = type: in vitro ADME; details: for metabolised at 1 h / metabolised at 2 h / metabolised at 4 h / metabolised at 6 h / metabolised at 20 h: simulated gastric juice, pH 1.2
Experimental: Each of the test compounds was dissolved to a predetermined concentration in an acidic aqueous medium (simulated gastric juice) having a pH of 1.2 prepared by adding 2.0 g of sodium chloride, 24 ml of 10% hydrochloric acid and 3.2 g of pepsin to 1000 ml of water. While the solution was shaken at 37° C., it was periodically sampled. The sampled solution was subjected to high-speed liquid chromatography using a reversed phase partition column, and the hydrolysis ratio of the compound was determined from a decrease in the peak height of the compound in the chromatogram.

in vitro [2] = type: in vitro ADME; details: for metabolised at 5 min / metabolised at 10 min / metabolised at 20 min / metabolised at 0.5 h / metabolised at 1 h: simulated intestinal juice, pH 7.5
Experimental: The procedure of (a) was repeated except that a basic aqueous medium (simulated intestinal juice) having a pH of 7.50 prepared by adding 35.8 g of disodium phosphate, 6.0 ml of 10% hydrochloric acid and 2.8 g of pancreatin to 1000 ml of water was used instead of the acidic aqueous medium.

[3] = cited from earlier work
[4] = Conversion to Ampicillin in 40% mouse blood (bioautography); type: in vitro ADME; details: 40% mouse blood in pH 7.4 phosphate buffer, 37° C., 10 minutes
Experimental: The resulting Ampicillin ester hydrochloride was incubated in 40% mouse blood in pH 7.4 phosphate buffer at 37° C. for 10 minutes, and then subjected to bioautography.

[5] = Concentration in blood in oral administration (blood Ampicillin level ratio); type: in vivo, mice (ddy)
Experimental: Each of the test compounds was orally administered in a dose of 50 mg/kg calculated as Ampicillin to four week old mice (ddy, body weight about 20 g, five per group) which had been caused to fast overnight (the amount is equivalent to 0.2 ml of a 5 mg/ml aqueous solution of Ampicillin). The blood was taken from the experimental animals periodically, and the concentration of Ampicillin in the serum was measured by a bioassay method. The blood Ampicillin level ratio was calculated from the following equation. [formula]

in vivo = details: mouse, mice, aqueous solution

Row | Compound | metabolised at 1 h (in vitro [1]) [%] | metabolised at 2 h (in vitro [1]) [%] | metabolised at 4 h (in vitro [1]) [%] | metabolised at 6 h (in vitro [1]) [%] | metabolised at 20 h (in vitro [1]) [%] | metabolised at 5 min (in vitro [2]) [%] | metabolised at 10 min (in vitro [2]) [%] | metabolised at 20 min (in vitro [2]) [%] | metabolised at 0.5 h (in vitro [2]) [%] | metabolised at 1 h (in vitro [2]) [%] | Conversion to Ampicillin [4] | also measured
1 | CC1(C)S[C@@H]2[C@H](NC(=O)[C@H](N)c3ccccc3)C(=O)N2[C@H]1C(=O)OC1OC(=O)c2ccccc21 (stereo partly shown) [C, Ampicillin phthalidyl ester hydrochloride, reference compound] | 18 | 31 | 43 | 55 | 100 | 39 | 61 | 90 | 95 | 100 |  | 
2 | CC(C)(C)C(=O)OCOC(=O)[C@@H]1N2C(=O)[C@@H](NC(=O)[C@H](N)c3ccccc3)[C@H]2SC1(C)C [Pivampicillin, Ampicillin pivaloyloxymethyl ester] |  |  |  |  |  |  |  |  |  |  |  | Blood Ampicillin concentrations in oral vs intramuscular administration ([3]; oral administration, British Pat. Nos. 1,215,812 and 1,364,672): comparable blood Ampicillin concentrations in oral administration to those obtained by intramuscular administration
3 | CC1(C)S[C@@H]2[C@H](NC(=O)[C@H](N)c3ccccc3)C(=O)N2[C@H]1C(=O)OC1OC(=O)c2ccccc21 (stereo partly shown) [Talampicillin, Ampicillin phthalidyl ester] |  |  |  |  |  |  |  |  |  |  |  | Blood Ampicillin concentrations in oral vs intramuscular administration ([3]; in vivo, po): comparable blood Ampicillin concentrations in oral administration to those obtained by intramuscular administration
4 | CC1(C)S[C@@H]2[C@H](NC(=O)[C@H](N)c3ccccc3)C(=O)N2[C@H]1C(=O)OCc1coc(=O)o1 [Ampicillin (2-oxo-1,3-dioxolen-4-yl)methyl ester hydrochloride] |  |  |  |  |  |  |  |  |  |  | completely converted to Ampicillin | 
5 | CC1(C)S[C@@H]2[C@H](NC(=O)[C@H](N)c3ccccc3)C(=O)N2[C@H]1C(=O)OC1CCCc2oc(=O)oc21 (stereo partly shown) [Ampicillin (2,3-carbonyldioxy-2-cyclohexenyl)ester hydrochloride] |  |  |  |  |  |  |  |  |  |  | completely converted to Ampicillin | 
6 | Cc1oc(=O)oc1COC(=O)[C@@H]1N2C(=O)[C@@H](NC(=O)[C@H](N)c3ccccc3)[C@H]2SC1(C)C [A, Ampicillin (5-methyl-2-oxo-1,3-dioxolen-4-yl)methyl ester hydrochloride] | 7 | 15 | 20 | 28 | 52 | 16 | 32 | 48 | 65 | 80 | completely converted to Ampicillin | Duration of high Ampicillin concentrations in blood [5]: maintained over a long period of time
7 | CC1(C)S[C@@H]2[C@H](NC(=O)[C@H](N)c3ccccc3)C(=O)N2[C@H]1C(=O)OCc1oc(=O)oc1-c1ccccc1 [B, Ampicillin (2-oxo-5-phenyl-1,3-dioxolen-4-yl)methyl ester hydrochloride] | 9 | 20 | 30 | 35 | 65 | 18 | 37 | 53 | 70 | 90 | completely converted to Ampicillin | LD50 (in vivo; intravenous): 270 mg/kg; LD50 (in vivo; ip, intraperitoneal): 1770 mg/kg; LD50 (in vivo; oral): > 5000 mg/kg; Rate of hydrolysis relative to that of Ampicillin phthalidyl ester (in vitro [1]): about one half; Rate of hydrolysis relative to that of Ampicillin phthalidyl ester (in vitro [2]): about one half; Duration of high Ampicillin concentrations in blood [5]: maintained over a long period of time
